Test results from US12144788B2, “Visual cycle modulators” (CASE WESTERN RESERVE UNIVERSITY, priority 2017, dated 2024).

How the values were obtained:
Abca4−/−Rdh8−/− mice = experiment: protection against light-induced retinal degeneration (OCT, ONL thickness); assay type: in vivo, mouse
Description: FIGS. 7(A-B) illustrate protective effects of MB compounds against light-induced retinal degeneration in Abca4^−/−Rdh8^−/− mice. Drugs were administrated at the indicated doses to 4-6 week-old Abca4^−/−Rdh8^−/− mice (weight ˜20 g) by oral gavage. After a 24 h dark adaptation, mice were exposed to 10,000 lux light for 30 min and then returned to a dark environment for 3 days. (A) Representative OCT images of mice treated with MB compounds. A dramatic decrease in the ONL indicates advanced retinal degeneration. The black scale beside the DMSO image represents 50 μm. (B) Retinal protective effects exerted by MB compounds as quantified by average ONL thickness. Only non-scattering ONL layers were measured. For images in which the ONL layer boundary was obscured due to light scattering, the ONL length was recorded as 0 μm. Error bars represent standard deviations; n=3-5 for each group.
Abca4^−/−Rdh8^−/− mice on a C57BL/6J background were generated as previously described. Male and female WT mice with C57BL/6J backgrounds were obtained from The Jackson Laboratory. Abca4^−/−Rdh8^−/− mice used in this study were homozygous for the Leu450 allele of Rpe65 as determined by a genotyping protocol published previously and free of Crb1/rd8 and rd/rd mutations Animals were housed either in the animal facility at the Case Western Reserve University School of Medicine, where they received a standard chow diet (LabDiet 5053) and were maintained under a 12-h light (˜300 lux) and 12-h dark cycle or at the Cole Eye Institute animal facility where they were. Mice were dark adapted overnight prior to all experiments. A cohort of Rdh8^−/−Abca4^−/− or C57BL/6J mice was used when they reached the age of 1 to 2 months, and both sexes were used evenly. All tested primary amines were suspended in 100 μl soybean oil with less than 10% (v/v) DMSO and were administered by oral gavage with a 22-gauge feeding needle. Experimental manipulations in the dark were done under dim red light transmitted through a Kodak No. 1 Safelight Filter (transmittance >560 nm).
After dark adaptation for 24 h, Abca4^−/−Rdh8^−/− mice with pupils dilated by 1% tropicamide were exposed to fluorescent light (10,000 lux; 150 W spiral lamp; Commercial Electric) for 30 min in a white paper bucket (Papersmith) and then kept in the dark for an additional 3 days. Development of retinal degeneration was then determined by ultra-high-resolution spectral domain OCT (SD-OCT; Bioptigen) and ERG as previously described.
To examine the ability of […] cause retinal damage in the absence of treatment with protective agents. Three days later retinas were imaged in vivo by optical coherence tomography, with preservation of outer nuclear layer thickness and light scattering properties serving as markers for retinal health. MB-001, which is capable of preventing light-induced retinal degeneration through both direct RPE65 inhibition as well as retinal sequestration served as a positive control for these experiments.

[1] = identification of atRAL Schiff base conjugates with MB compounds in mouse eyes; assay type: in vivo; conditions: Abca4−/−Rdh8−/− mice, 50 mg/kg oral gavage, bright light exposure 10 min; mass spectrometry versus standards
Description: FIGS. 6(A-B) illustrate identification of retinal Schiff base conjugates in Abca4^−/− Rdh8^−/− mice treated with MB-005 and MB-006. Following drug administration, mice were exposed to intense light for 10 min. After a 30 min recovery under darkness, animals were sacrificed and retinoids were extracted from the eyes. (A, B) Shown in the top panels are selective ion chromatograms for MB-005-retinal conjugates (A, at m/z=572.6) and MB-006-retinal conjugates (B, at m/z=588.6). Panels on the bottom show the mass spectra of the peaks coinciding with the retention times of their authentic standards. The insets display the MS/MS fragmentation patterns of the two imines, which were identical to the corresponding standards.
MB-005 or MB-006 (50 mg/kg) were administrated by oral gavage to Abca4^−/−Rdh8^−/− mice 24 h prior to light exposure. After exposure to fluorescent light for 10 min, animals were euthanized and their eyes were collected and homogenized in acetonitrile. After centrifugation, the supernatant was concentrated to 400 μl under vacuum. […]
With the effects of these compounds on visual cycle function established we next sought to examine their ability to form retinal-Schiff base conjugates in vivo. […] Retinoids were extracted and analyzed by mass spectrometry. […]

C57BL/6J mice = experiment: in vivo dark-adapted ERG recordings after bleach; set-up: species or system mouse; conditions: gavage 1 day before bleach, doses indicated effective by retinoid analysis
Description: FIG. 5 illustrates ERG responses of mice treated with visual cycle modulators. Oral gavage was used to administer vehicle or MB compounds to mice 24 h prior to 10 min light exposure followed by 6 h of dark adaptation. Dark-adapted ERGs were obtained to strobe flash stimuli.
C57BL/6J mice aged 1.5-4 months were anesthetized with ketamine (80 mg/kg) and xylazine (16 mg/kg) after overnight dark adaptation. Mydriatic eye drops were used to dilate the pupil (1% tropicamide; 2.5% phenylephrine). ERGs were obtained using an active electrode that contacted the corneal surface; needle electrodes placed in the cheek and tail provided reference and ground leads, respectively. Strobe stimuli were presented to the dark-adapted eye in an LKC (Gaithersburg, MD) ganzfeld. Responses were amplified, averaged and stored using an LKC UTAS E-3000 signal averaging system.
Baseline dark-adapted ERGs were recorded from each mouse. After a minimum 1 day interval, MB compounds or vehicle were administered by gavage at 9 a.m. The next morning, mydriatic eye drops were used to dilate the pupils and mice were then exposed to a 10-minute 10,000 lux bleach. Mice were dark-adapted for 6 hours, after which ERGs were recorded.
We next examined the impact of these compounds on retinal function, measured using the electroretinogram (ERG). FIG. 5 presents a family of dark-adapted ERGs measured 6 hours after mice underwent a 95% bleach presented 1 day following gavage administration of vehicle or MB compound molecules at doses indicated to be effective by retinoid analysis. […] In comparison, mice administered with MB compound molecules had had reduced amplitude ERGs indicative of incomplete bleaching recovery. […] In response to higher luminance stimuli, reproducible responses were observed. That these reflect dark-adapted cone-mediated responses is supported by their similarity to responses obtained from transducin KO mice which lack rod-mediated activity, while retaining normal cone-mediated responses, and have a very similar ERG phenotype.

RPE65 = RPE65 (Bos taurus, UniProt Q28175); experiment: in vitro retinoid isomerase activity assay with bovine RPE microsomes; conditions: up to concentrations of 50 μM
Sequence of RPE65 (Q28175 whole entry): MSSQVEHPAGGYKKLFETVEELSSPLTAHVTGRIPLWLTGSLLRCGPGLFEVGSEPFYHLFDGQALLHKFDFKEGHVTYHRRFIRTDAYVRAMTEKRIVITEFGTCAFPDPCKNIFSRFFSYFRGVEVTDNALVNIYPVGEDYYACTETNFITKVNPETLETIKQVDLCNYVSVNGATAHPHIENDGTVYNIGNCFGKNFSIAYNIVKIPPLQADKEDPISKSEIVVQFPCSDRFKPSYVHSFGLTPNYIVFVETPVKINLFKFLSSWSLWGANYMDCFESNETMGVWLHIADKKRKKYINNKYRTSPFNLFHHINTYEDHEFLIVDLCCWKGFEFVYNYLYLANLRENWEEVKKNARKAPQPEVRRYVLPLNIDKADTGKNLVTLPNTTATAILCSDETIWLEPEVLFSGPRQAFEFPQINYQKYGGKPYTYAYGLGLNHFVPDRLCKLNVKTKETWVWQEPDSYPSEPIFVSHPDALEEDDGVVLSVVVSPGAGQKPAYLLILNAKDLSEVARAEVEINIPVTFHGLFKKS
Description: Primary amines were pre-incubated with bovine RPE microsomes at room temperature for 5 min, then all-trans-retinol was added and the mixtures were incubated at 37° C. All incubation mixtures were quenched by the addition of methanol after 1 h of incubation. Inhibition of RPE65 enzymatic activity was measured as a decline in 11-cis-retinol production.
Synthesized primary amine (1 μl in DMF, with the final concentration ranging between 50 nM and 50 μM) was added to 10 mM Bis-Tris propane/HCl buffer, pH 7.4, containing 150 μg RPE microsomes, 1% BSA, 1 mM disodium pyrophosphate, and 20 μM aporetinaldehyde-binding protein 1 (CRALBP). The resulting mixture was pre-incubated at room temperature for 5 min. Then, all-trans-retinol (1 μl in DMF, at a final concentration of 20 μM) was added. The resulting mixture was incubated at 37° C. for 1 h. The reaction was quenched by adding 300 μl methanol, and products were extracted with 300 μl hexanes. Production of 11-cis-retinol was quantified by normal-phase HPLC with 10% (v/v) EtOAc in hexanes as the eluent at a flow rate of 1.4 ml/min. Retinoids were detected by monitoring their absorbance at 325 nm and quantified based on a standard curve representing the relationship between the amount of synthetic 11-cis-retinol standard and the area under the corresponding chromatographic peak.
To test these structural predictions, we examined the inhibitory activity of the compounds against RPE65 activity in an in vitro retinoid isomerase assay using bovine RPE microsomes as the enzyme source.

dark-adapted ERG 6 hours after 95% bleach (C57BL/6J mice): less incomplete recovery | inhibition against retinoid isomerization (RPE65): minimal or no inhibition
Structure (SMILES): CC(C)c1cc(OCC2CCCCC2)cc(C(O)CCN)c1 (stereo not drawn) [MB-005, 3-Amino-1-(3-(cyclohexylmethoxy)-5-isopropylphenyl)propan-1-ol]
protective effect compared to the MB-001 control (Abca4−/−Rdh8−/− mice; 0.5 mg/mouse oral gavage 24 h before light): ~50% | protection against light-induced retinal degeneration (Abca4−/−Rdh8−/− mice; 2 mg/mouse oral gavage 24 h before light): fully protected | protective effect compared to the MB-001 control (Abca4−/−Rdh8−/− mice; doubling of 0.5 mg/mouse (1 mg/mouse), oral gavage 24 h before light): ~80% | retinal Schiff base adducts in eye extracts [1]: contained compounds matching the expected molecular weight of the respective Schiff base adducts
